From PMC9623849 (iScience, 2022)
Read-outs that look alike come from different tables or passages of the source.

Experiments:
[1] = tested on: SARS-CoV-2 WK-521 (ancestral Wuhan strain); type: cell-based; conditions: Table 2; VeroE6 cells, RNA-qPCR
[2] = tested on: SARS-CoV-2 WK-521 infected VeroE6 cells; conditions: concentrations up to 100 μM (Figure S3)
SARS-CoV-2 M^pro/3CL^pro = SARS-CoV-2 M^pro/3CL^pro (Severe acute respiratory syndrome coronavirus 2, UniProt P0DTD1); experiment: biochemical; conditions: for IC50 fold change to 5h (in parentheses): Table 1
in vitro = conditions: African green monkey, CC50, Table 1; VeroE6 cells, WST-8
[3] = mice
in vivo = conditions: female, Jcl:ICR (ICR), mouse, iv, 2 mg/kg, mice, i.v. 2.0 mg/kg, 240 min

| SMILES | EC75 [1] [nM] | EC99 [1] [µM] | cytotoxicity in immunostaining experiments [2] | IC50 (SARS-CoV-2 M^pro/3CL^pro) [nM] | IC50 fold change to 5h (in parentheses) (SARS-CoV-2 M^pro/3CL^pro) | CC50 (in vitro) [nM] | blood concentrations after administration ([3]; i.p. 20 mg/kg) | blood concentrations after administration ([3]; i.v. 2.0 mg/kg) | blood concentrations after administration ([3]; p.o.) | half-life (in vivo) [min] | half-life, times longer than that of the parent compound ([3]; i.v. 2.0 mg/kg, relative to 5h (2)) |
| --- | --- | --- | --- | --- | --- | --- | --- | --- | --- | --- | --- |
| COc1ccc(F)c2[nH]c(C(=O)N[C@@H](CC(C)C)C(=S)N[C@@H](C[C@@H]3CCNC3=O)C(=O)c3nc4c(F)cccc4s3)cc12 [Compound 4] | 590 ± 30 | 4.1 ± 3.1 | no significant cytotoxicity at concentrations up to 100 μM | 370 ± 15 | 1.0 | > 100000 | maintained remarkably higher blood concentrations than compound 3 | higher blood concentrations of compound 4 were maintained compared with those of compound 3 after 60 min, and even 240 min | maintained remarkably higher blood concentrations for the first day than compound 3 |  |  |
| COc1cccc2[nH]c(C(=O)N[C@@H](CC(C)C)C(=S)N[C@@H](C[C@@H]3CCNC3=O)C(=O)c3nc4ccccc4s3)cc12 [Compound 60] |  |  |  | 990 ± 60 | 2.8 | > 100000 |  | High blood concentrations of compound 60 were maintained after 60 min, and even 240 min had passed |  | 50 to 60 | 2–3 times |
| CC(C)C[C@H](NC(=O)c1cc2c(F)ccc(F)c2[nH]1)C(=O)N[C@@H](C[C@@H]1CCNC1=O)C(=O)c1nc2cc(F)ccc2s1 [Compound 44] |  |  |  | 120 ± 10 | 0.34 | > 100000 |  |  |  | ~30 |  |
| CCC(CC)COC(=O)[C@H](C)N[P@](=O)(OC[C@H]1O[C@@](C#N)(c2ccc3c(N)ncnn23)[C@H](O)[C@@H]1O)Oc1ccccc1 [Remdesivir, reference compound] |  |  |  |  |  | > 100000 |  |  |  |  |  |
| CC(C)(C)[C@H](NC(=O)C(F)(F)F)C(=O)N1C[C@H]2[C@@H]([C@H]1C(=O)N[C@H](C#N)C[C@@H]1CCNC1=O)C2(C)C [PF-07321332 (1), Nirmatrelvir, reference compound] | 4400 ± 210 | 9.7 ± 0.015 |  |  |  | > 100000 |  |  |  | < 23 |  |
| CC(C)C[C@H](NC(=O)c1cc2c(F)cc(F)cc2[nH]1)C(=O)N[C@@H](C[C@@H]1CCNC1=O)C(=O)c1nc2cc(F)ccc2s1 [Compound 54] |  |  |  | 540 ± 20 | 1.5 | > 100000 |  |  |  |  |  |
| COc1ccc(F)c2[nH]c(C(=O)N[C@@H](CC(C)C)C(=O)N[C@@H](C[C@@H]3CCNC3=O)C(=O)c3nc4c(F)cccc4s3)cc12 [Compound 3] | 460 ± 20 | 0.97 ± 0.0020 | no significant cytotoxicity at concentrations up to 100 μM | 37 ± 1 | 0.10 | > 100000 |  |  |  |  |  |
